Assay results reported in patent US20070036871A1, “TECHNIQUE FOR TREATMENT AND PREVENTION OF FUNGAL DISEASES IN GROWING GRAPES BY APPLICATION OF A SODIUM CHLORITE, UREA SULFURIC ACID SOLUTION” (priority 2005, published 2007).
Several values for one entry are separate records, joined by “and”; a condition that tells them apart may be missing. Equal values may be shown once.

Test system: powdery mildew
Assay: Field trials of foliar fungicide treatments on Carignane grape vines against powdery mildew (Example IV)
Format: in vivo
[1] = individual plot data, rated July 3 after June 22 treatment
[2] = individual plot data, rated July 12 after July 3 treatment
[3] = individual plot data, rated June 22 after June 12 treatment
[4] = rated July 3 after June 22 treatment (10 days after second treatment), average of plots
[5] = rated July 12 after July 3 treatment (10 days after third treatment), average of plots
[6] = rated June 22 after June 12 treatment (10 days after first treatment), average of plots

With [S] [4-6 lb/acre sulphur, sulphur] the “% fruit w/ symptoms” value [1] was 20% and 40% and 15% and 5%, the “% leaves w/ symptoms” value [1] was 10% and 20% and 2% and 8% and the “% severity of infected fruit” value [1] was 15% and 30% and 10% and 5%. The “% severity of infected leaves” value [1] was 15% and 20% and 4% and 5%, the “% fruit w/ symptoms” value [2] was 10% and 60% and 40% and 20% and the “% leaves w/ symptoms” value [2] was 2% (3×) and 15%. For the same compound, the “% severity of infected fruit” value [2] was 10% (2×) and 40% and 25%, the “% severity of infected leaves” value [2] was 5% (3×) and 2% and the “% fruit w/ symptoms” value [3] was 30% and 40% and 20% and 15%. For the same compound, the “% leaves w/ symptoms” value [3] was 2% (2×) and 20% and 5%, the “% severity of infected fruit” value [3] was 8% and 30% and 6% and 20% and the “% severity of infected leaves” value [3] was 2% (2×) and 18% and 5%. For the same compound, the “% fruit w/ symptoms” value [4] was 20%, the “% leaves w/ symptoms” value [4] was 10% and the “% severity of infected fruit” value [4] was 15%. The “% severity of infected leaves” value [4] was 11% and 20%, the “% fruit w/ symptoms” value [5] was 32.5% and the “% leaves w/ symptoms” value [5] was 5.25%. The “% severity of infected fruit” value [5] was 21.25%, the “% severity of infected leaves” value [5] was 4.25% and the “% fruit w/ symptoms” value [6] was 26.25%. The “% leaves w/ symptoms” value [6] was 7.25%, the “% severity of infected fruit” value [6] was 16% and the “% severity of infected leaves” value [6] was 6.75%. For the same compound, the “fungal disease control (in words)” value (ten days after the third treatment) was “substantially lower disease infection in leaves over the low rate NaClO2+US acid treatment”.
